Experimental data published in ChEMBL document CHEMBL4308841, “Synthesis, in vitro antiproliferative activity, and kinase inhibitory effects of pyrazole-containing diarylureas and diarylamides” (Eur J Med Chem, 2018).

Columns and labels:
HOP-92 [1] = assay: Growth inhibition of human HOP92 cells incubated for 48 hrs by sulforhodamine B assay; format: functional, cell-based; conditions: HOP-92, 48 h
[2] = target: Hepatocyte growth factor receptor (Homo sapiens) (UniProt P08581); assay: Inhibition of human c-MET at 10 uM using KKKSPGEYVNIEFG as substrate after 40 mins in presence of [gamma33P]ATP by scintillation counting method relative to control
[3] = target: Mitogen-activated protein kinase 1 (Homo sapiens) (UniProt P28482); assay: Inhibition of human ERK2 at 10 uM using myelin basic protein as substrate after 40 mins in presence of [gamma33P]ATP by scintillation counting method relative to control
HT-29 = assay: Growth inhibition of human HT-29 cells incubated for 48 hrs by sulforhodamine B assay; format: functional, cell-based; conditions: HT-29, 48 h
[4] = target: Fibroblast growth factor receptor 1 (Homo sapiens) (UniProt P11362); assay: Inhibition of human FGFR1 at 10 uM using KKKSPGEYVNIEFG as substrate after 40 mins in presence of [gamma33P]ATP by scintillation counting method relative to control
[5] = target: Macrophage colony-stimulating factor 1 receptor (Homo sapiens) (UniProt P07333); assay: Inhibition of human FMS at 10 uM using poly[Glu:Tyr] (4:1) as substrate after 40 mins in presence of [gamma33P]ATP by scintillation counting method relative to control
[6] = target: Mitogen-activated protein kinase 14 (Homo sapiens) (UniProt Q16539); assay: Inhibition of human p38alpha at 10 uM using myelin basic protein as substrate after 40 mins in presence of [gamma33P]ATP by scintillation counting method relative to control
[7] = target: RAF proto-oncogene serine/threonine-protein kinase (Homo sapiens) (UniProt P04049); assay: Inhibition of human c-RAF at 10 uM using MEK1 (K97R) as substrate after 40 mins in presence of [gamma33P]ATP by scintillation counting method relative to control
RPMI-8226 = assay: Induction of apoptosis in human RPMI8226 cells assessed as increase in caspase 3/7 level; format: functional, cell-based
[8] = target: Dual specificity mitogen-activated protein kinase kinase 1 (Homo sapiens) (UniProt Q02750); assay: Inhibition of human MEK1 at 10 uM using ERK2 (K52R) as substrate after 40 mins in presence of [gamma33P]ATP by scintillation counting method relative to control
NCI-H522 = assay: Growth inhibition of human NCI-H522 cells assessed as cell growth at 100 uM incubated for 48 hrs by sulforhodamine B assay relative to control; format: functional; conditions: NCI-H522, 48 h, read-out: Activity
DU-145 = assay: Growth inhibition of human DU145 cells assessed as cell growth at 100 uM incubated for 48 hrs by sulforhodamine B assay relative to control; format: functional; conditions: DU-145, 48 h, read-out: Activity
MOLT-4 = assay: Growth inhibition of human MOLT4 cells assessed as cell growth at 0.01 uM incubated for 48 hrs by sulforhodamine B assay relative to control; format: functional; conditions: MOLT-4, 48 h, read-out: Activity
IGROV-1 = assay: Growth inhibition of human IGROV1 cells assessed as cell growth at 1 uM incubated for 48 hrs by sulforhodamine B assay relative to control; format: functional; conditions: IGROV-1, 48 h, read-out: Activity
[9] = target: Mitogen-activated protein kinase 8 (Homo sapiens) (UniProt P45983); assay: Inhibition of human JNK1 at 10 uM using ATF2 as substrate after 40 mins in presence of [gamma33P]ATP by scintillation counting method relative to control
TK-10 [10] = assay: Growth inhibition of human TK10 cells assessed as cell growth at 1 uM incubated for 48 hrs by sulforhodamine B assay relative to control; format: functional; conditions: TK-10, 48 h, read-out: Activity
[11] = target: Serine/threonine-protein kinase A-Raf (Homo sapiens) (UniProt P10398); assay: Inhibition of human ARAF at 10 uM using MEK1 (K97R) as substrate after 40 mins in presence of [gamma33P]ATP by scintillation counting method relative to control
SF-295 = assay: Growth inhibition of human SF295 cells incubated for 48 hrs by sulforhodamine B assay; format: functional, cell-based; conditions: SF-295, 48 h
TK-10 [12] = assay: Growth inhibition of human TK10 cells assessed as cell growth at 100 uM incubated for 48 hrs by sulforhodamine B assay relative to control; format: functional; conditions: TK-10, 48 h, read-out: Activity
HOP-92 [13] = assay: Growth inhibition of human HOP92 cells assessed as cell growth at 0.1 uM incubated for 48 hrs by sulforhodamine B assay relative to control; format: functional; conditions: HOP-92, 48 h, read-out: Activity
[14] = target: Epidermal growth factor receptor (Homo sapiens) (UniProt P00533); assay: Inhibition of human EGFR at 10 uM using poly[Glu:Tyr] (4:1) as substrate after 40 mins in presence of [gamma33P]ATP by scintillation counting method relative to control
TK-10 [15] = assay: Growth inhibition of human TK10 cells incubated for 48 hrs by sulforhodamine B assay; format: functional, cell-based; conditions: TK-10, 48 h
[16] = target: Receptor tyrosine-protein kinase erbB-4 (Homo sapiens) (UniProt Q15303); assay: Inhibition of human ERBB4 at 10 uM using poly[Glu:Tyr] (4:1) as substrate after 40 mins in presence of [gamma33P]ATP by scintillation counting method relative to control
SR = assay: Growth inhibition of human SR cells incubated for 48 hrs by sulforhodamine B assay; format: functional, cell-based
[17] = target: Serine/threonine-protein kinase B-raf (Homo sapiens, UniProt P15056, V600E); assay: Inhibition of human BRAF V600E mutant using MEK1 (K97R) as substrate after 40 mins in presence of [gamma33P]ATP by scintillation counting method
[18] = read-out: LC50 (the source's name)
[19] = read-out: pLC50 (the source's name) (converted)

Mitogen-activated protein kinase 8 (Homo sapiens), sequence (P45983 whole entry): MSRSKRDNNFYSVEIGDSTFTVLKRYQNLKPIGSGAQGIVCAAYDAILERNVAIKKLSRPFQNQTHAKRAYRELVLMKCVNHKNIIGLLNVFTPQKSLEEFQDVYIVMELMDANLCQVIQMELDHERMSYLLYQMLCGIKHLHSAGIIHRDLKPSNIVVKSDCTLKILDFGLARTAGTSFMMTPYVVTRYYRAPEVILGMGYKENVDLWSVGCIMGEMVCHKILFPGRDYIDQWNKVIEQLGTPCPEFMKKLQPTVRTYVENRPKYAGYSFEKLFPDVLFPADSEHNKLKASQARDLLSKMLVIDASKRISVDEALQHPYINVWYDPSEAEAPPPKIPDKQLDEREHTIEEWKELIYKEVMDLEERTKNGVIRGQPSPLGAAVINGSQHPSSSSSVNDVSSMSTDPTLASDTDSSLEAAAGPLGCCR
Mitogen-activated protein kinase 14 (Homo sapiens), sequence (Q16539 whole entry): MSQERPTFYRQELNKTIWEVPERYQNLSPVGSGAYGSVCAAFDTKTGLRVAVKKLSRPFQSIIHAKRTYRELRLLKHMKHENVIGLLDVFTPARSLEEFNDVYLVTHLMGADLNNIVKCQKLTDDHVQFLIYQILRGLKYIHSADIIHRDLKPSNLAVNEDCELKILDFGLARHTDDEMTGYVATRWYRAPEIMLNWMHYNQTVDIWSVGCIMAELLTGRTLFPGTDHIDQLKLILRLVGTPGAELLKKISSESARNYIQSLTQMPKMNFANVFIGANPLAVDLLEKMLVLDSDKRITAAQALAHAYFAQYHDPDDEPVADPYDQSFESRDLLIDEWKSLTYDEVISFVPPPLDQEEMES
Serine/threonine-protein kinase A-Raf (Homo sapiens), sequence (P10398 whole entry): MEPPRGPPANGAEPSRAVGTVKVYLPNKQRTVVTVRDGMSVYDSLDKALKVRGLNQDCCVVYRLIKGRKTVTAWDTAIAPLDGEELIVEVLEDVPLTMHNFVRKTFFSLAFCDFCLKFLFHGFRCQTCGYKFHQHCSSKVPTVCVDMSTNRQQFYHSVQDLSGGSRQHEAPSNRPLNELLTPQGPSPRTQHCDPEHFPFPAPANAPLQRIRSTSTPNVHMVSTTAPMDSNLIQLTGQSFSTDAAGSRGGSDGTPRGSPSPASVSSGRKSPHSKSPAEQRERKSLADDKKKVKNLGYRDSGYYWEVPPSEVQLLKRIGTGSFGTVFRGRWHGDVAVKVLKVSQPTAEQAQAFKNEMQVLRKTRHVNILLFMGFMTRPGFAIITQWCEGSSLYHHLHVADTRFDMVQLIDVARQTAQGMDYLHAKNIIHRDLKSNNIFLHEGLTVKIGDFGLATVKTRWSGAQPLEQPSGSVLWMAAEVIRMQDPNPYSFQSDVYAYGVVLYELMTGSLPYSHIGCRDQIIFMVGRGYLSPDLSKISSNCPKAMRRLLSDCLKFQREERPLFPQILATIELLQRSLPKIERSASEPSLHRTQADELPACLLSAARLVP
Dual specificity mitogen-activated protein kinase kinase 1 (Homo sapiens), sequence (Q02750 whole entry): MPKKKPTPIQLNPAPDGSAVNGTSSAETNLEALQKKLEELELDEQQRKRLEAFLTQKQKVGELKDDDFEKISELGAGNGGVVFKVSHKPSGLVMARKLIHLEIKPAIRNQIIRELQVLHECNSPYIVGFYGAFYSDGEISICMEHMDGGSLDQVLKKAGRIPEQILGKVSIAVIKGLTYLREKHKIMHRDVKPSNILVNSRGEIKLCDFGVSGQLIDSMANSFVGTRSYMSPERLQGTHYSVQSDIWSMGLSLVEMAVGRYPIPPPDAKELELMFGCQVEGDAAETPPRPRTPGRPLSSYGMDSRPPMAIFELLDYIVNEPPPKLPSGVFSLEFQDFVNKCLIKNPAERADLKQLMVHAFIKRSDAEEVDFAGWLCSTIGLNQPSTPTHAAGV
RAF proto-oncogene serine/threonine-protein kinase (Homo sapiens), sequence (P04049 whole entry): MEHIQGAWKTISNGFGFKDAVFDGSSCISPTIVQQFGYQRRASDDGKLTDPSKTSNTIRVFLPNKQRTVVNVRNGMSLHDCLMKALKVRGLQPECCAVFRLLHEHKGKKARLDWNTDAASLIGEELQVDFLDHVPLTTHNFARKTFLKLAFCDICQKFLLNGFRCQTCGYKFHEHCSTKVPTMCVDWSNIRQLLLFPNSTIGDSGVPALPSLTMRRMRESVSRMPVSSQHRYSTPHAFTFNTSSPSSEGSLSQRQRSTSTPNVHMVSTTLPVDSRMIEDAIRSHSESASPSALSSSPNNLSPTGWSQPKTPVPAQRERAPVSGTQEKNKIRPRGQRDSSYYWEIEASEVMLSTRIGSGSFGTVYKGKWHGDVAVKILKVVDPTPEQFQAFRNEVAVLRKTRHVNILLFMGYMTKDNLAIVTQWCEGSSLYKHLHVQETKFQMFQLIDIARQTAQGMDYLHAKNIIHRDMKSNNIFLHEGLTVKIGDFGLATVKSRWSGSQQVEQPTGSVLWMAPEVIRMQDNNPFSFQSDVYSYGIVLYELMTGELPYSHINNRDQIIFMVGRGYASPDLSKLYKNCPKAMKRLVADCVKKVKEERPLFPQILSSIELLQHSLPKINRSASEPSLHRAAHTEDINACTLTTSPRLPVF
Receptor tyrosine-protein kinase erbB-4 (Homo sapiens), sequence (Q15303 whole entry): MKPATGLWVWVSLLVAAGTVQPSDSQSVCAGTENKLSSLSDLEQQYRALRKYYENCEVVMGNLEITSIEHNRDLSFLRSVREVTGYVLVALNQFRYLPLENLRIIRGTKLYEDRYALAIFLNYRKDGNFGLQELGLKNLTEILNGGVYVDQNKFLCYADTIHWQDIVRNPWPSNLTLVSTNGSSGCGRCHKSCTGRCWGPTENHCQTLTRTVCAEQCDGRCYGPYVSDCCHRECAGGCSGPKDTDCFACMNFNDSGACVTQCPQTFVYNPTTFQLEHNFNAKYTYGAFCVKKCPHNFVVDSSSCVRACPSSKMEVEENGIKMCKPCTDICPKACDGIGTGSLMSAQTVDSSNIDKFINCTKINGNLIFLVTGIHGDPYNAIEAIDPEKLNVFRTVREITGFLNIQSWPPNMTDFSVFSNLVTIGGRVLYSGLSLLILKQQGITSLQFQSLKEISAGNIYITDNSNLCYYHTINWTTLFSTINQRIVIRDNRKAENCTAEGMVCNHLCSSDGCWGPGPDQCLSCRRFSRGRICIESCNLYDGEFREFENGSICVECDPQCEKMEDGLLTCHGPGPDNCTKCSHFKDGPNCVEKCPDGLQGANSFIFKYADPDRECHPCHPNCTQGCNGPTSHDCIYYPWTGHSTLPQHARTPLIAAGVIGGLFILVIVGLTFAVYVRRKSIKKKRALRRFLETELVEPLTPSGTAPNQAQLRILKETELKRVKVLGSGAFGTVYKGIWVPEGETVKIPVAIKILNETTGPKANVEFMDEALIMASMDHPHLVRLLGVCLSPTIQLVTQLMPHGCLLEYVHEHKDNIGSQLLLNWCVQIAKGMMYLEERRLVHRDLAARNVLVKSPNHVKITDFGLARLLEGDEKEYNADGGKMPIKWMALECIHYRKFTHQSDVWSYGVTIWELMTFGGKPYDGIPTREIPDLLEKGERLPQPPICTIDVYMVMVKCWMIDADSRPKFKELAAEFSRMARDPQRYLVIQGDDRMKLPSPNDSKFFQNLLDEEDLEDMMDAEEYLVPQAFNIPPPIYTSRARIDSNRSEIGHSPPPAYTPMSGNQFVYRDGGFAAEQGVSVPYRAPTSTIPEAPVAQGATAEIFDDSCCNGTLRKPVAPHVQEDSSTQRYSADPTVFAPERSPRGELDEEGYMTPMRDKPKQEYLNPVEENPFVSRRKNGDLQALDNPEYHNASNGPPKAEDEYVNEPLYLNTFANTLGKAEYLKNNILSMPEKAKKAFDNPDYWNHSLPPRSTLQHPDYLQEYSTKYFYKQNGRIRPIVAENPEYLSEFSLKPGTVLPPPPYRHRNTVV
Mitogen-activated protein kinase 1 (Homo sapiens), sequence (P28482 whole entry): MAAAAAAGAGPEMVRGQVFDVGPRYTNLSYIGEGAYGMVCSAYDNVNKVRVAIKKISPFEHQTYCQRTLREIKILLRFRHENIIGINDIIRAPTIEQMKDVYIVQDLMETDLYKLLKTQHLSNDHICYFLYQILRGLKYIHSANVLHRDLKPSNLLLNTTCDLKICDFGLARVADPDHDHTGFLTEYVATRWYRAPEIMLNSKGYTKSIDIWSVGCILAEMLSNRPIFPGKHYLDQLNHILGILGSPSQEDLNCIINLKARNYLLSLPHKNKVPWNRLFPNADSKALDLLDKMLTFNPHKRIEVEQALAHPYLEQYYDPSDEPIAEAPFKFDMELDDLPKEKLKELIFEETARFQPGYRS
Fibroblast growth factor receptor 1 (Homo sapiens), sequence (P11362 22-822 limits assumed): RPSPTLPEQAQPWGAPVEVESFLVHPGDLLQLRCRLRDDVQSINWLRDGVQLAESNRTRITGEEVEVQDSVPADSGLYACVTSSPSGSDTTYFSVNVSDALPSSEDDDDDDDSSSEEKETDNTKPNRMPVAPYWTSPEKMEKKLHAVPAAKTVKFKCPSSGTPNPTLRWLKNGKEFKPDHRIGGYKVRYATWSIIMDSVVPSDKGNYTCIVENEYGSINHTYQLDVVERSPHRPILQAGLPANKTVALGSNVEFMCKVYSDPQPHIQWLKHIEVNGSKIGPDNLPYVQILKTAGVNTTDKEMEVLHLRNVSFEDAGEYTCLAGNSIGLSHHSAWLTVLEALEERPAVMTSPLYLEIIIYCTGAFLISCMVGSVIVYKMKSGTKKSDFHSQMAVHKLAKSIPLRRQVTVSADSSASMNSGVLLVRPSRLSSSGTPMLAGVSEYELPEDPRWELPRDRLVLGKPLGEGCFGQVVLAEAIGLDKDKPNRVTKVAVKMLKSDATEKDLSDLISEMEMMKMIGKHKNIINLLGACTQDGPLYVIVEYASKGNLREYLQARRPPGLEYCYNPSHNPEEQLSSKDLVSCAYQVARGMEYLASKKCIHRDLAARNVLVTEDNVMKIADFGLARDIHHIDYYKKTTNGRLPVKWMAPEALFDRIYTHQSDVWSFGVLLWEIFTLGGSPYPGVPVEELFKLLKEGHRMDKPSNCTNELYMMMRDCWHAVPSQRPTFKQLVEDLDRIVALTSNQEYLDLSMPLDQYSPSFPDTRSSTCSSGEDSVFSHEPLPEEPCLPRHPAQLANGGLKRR

COc1cc(Cl)cc(-c2nn(-c3cccc(NC(=O)Nc4cc(C(F)(F)F)cc(C(F)(F)F)c4)c3)cc2-c2ccncc2)c1 was tested, and the IC50 (HOP-92 [1]) was 230 nM, the GI50 (HOP-92 [1]; read-out: GI50) was 228 nM and the CC50 (HOP-92 [1]; [18]) was 2010 nM. It also gave a TGI (HOP-92 [1]; read-out: TGI) of 780 nM, a GI50 (HOP-92 [1]; read-out: pGI50 (converted)) of 229 nM and a CC50 (HOP-92 [1]; [19]) of 20000 nM. It also gave a TGI (HOP-92 [1]; read-out: pTGI (converted)) of 776 nM, an inhibition [2] of 5.66% and an inhibition [3] of -8.66%. For the same compound, the IC50 (HT-29) was 450 nM, the GI50 (HT-29; read-out: GI50) was 453 nM and the CC50 (HT-29; [18]) was 12.6 nM. It also gave a TGI (HT-29; read-out: TGI) of 2210 nM, a GI50 (HT-29; read-out: pGI50 (converted)) of 457 nM and a CC50 (HT-29; [19]) of 12900 nM. The TGI (HT-29; read-out: pTGI (converted)) was 2820 nM, the inhibition [4] was -1.71% and the inhibition [5] was -0.94%. For the same compound, the inhibition [6] was -5.41%, the inhibition [7] was 57.8% and the EC50 (RPMI-8226) was 1520 nM. The inhibition [8] was -7.99%, the growth at 100 µM (NCI-H522) was -69% and the growth at 100 µM (DU-145) was -58%. The growth at 0.01 µM (MOLT-4) was 94%, the growth at 1 µM (IGROV-1) was 33% and the inhibition [9] was 2.27%. It also gave a growth at 1 µM (TK-10 [10]) of 42%, an inhibition [11] of 49.2% and an IC50 (SF-295) of 330 nM. It also gave a GI50 (SF-295; read-out: GI50) of 332 nM, a CC50 (SF-295; [18]) of 63.7 nM and a TGI (SF-295; read-out: TGI) of 1440 nM. The GI50 (SF-295; read-out: pGI50 (converted)) was 331 nM, the CC50 (SF-295; [19]) was 6310 nM and the TGI (SF-295; read-out: pTGI (converted)) was 1450 nM. The growth at 100 µM (TK-10 [12]) was -91%, the growth at 0.1 µM (HOP-92 [13]) was 83% and the inhibition [14] was -7.47%. The IC50 (TK-10 [15]) was 680 nM, the GI50 (TK-10 [15]; read-out: GI50) was 654 nM and the CC50 (TK-10 [15]; [18]) was 42.5 nM. For the same compound, the TGI (TK-10 [15]; read-out: TGI) was 14600 nM, the GI50 (TK-10 [15]; read-out: pGI50 (converted)) was 708 nM and the CC50 (TK-10 [15]; [19]) was 42700 nM. The TGI (TK-10 [15]; read-out: pTGI (converted)) was 14800 nM, the inhibition [16] was 0.9% and the IC50 (SR) was 450 nM. For the same compound, the GI50 (SR; read-out: GI50) was 452 nM, the CC50 (SR; [18]) was over 100000 nM and the TGI (SR; read-out: TGI) was 3310 nM. It also gave a GI50 (SR; read-out: pGI50 (converted)) of 447 nM, a CC50 (SR; [19]) of over 100000 nM and a TGI (SR; read-out: pTGI (converted)) of 3310 nM. It also gave an IC50 [17] of 390 nM.
